# Columns and labels:
# [1] = tested on: C57/B16 mice treated with intratracheal bleomeycin; assay: Bleomycin induced murine pulmonary fibrosis model (lung sections, trichrome stain, body weight, survival); assay type: in vivo
# Method: Murine models of bleomycin induced fibrosis have been developed in order to study fibrotic disease progression.
# There is an absence of airway epithelium in lower left compared to upper left (see arrow heads) and extensive collagen deposition (lower left). On the sixth day, either saline (upper right) or ICG-001 (5 mgs/Kg/day) was administered for 10 days after which the mice were sacrificed and sectioned. Of interest is the upper right (saline treatment) showing lack of normal airway epithelialization, extensive collagen deposition and intra-airway hypercellularity (fibroblasts and inflammatory influx).
# [2] = tested on: S100A4; assay: RT-PCR for S100A4 in bleomycin treated mice; assay type: in vivo; settings: ICG-001 5 mgs/Kg/day s.c.
# [3] = tested on: E-Cadherin; assay: E-Cadherin expression in IPF patient fibroblasts (Western blot on whole cell lysates); assay type: cell-based, human; settings: RPMI 1640+10% FBS, 2 days
# Method: (§1) Western blots for S100A4 (also know as FSP-1 or fibroblast specific protein-1) and E-Cadherin were performed on whole cell lysates.
# [4] = tested on: S100A4; assay: S100A4 expression in IPF patient fibroblasts (Western blot on whole cell lysates); assay type: cell-based, human
# Method: as §1
# [5] = biological target: β-catenin/CBP interaction (Homo sapiens, UniProt Q92793); settings: cited from earlier work
# Chain of β-catenin/CBP interaction (Q92793 whole entry): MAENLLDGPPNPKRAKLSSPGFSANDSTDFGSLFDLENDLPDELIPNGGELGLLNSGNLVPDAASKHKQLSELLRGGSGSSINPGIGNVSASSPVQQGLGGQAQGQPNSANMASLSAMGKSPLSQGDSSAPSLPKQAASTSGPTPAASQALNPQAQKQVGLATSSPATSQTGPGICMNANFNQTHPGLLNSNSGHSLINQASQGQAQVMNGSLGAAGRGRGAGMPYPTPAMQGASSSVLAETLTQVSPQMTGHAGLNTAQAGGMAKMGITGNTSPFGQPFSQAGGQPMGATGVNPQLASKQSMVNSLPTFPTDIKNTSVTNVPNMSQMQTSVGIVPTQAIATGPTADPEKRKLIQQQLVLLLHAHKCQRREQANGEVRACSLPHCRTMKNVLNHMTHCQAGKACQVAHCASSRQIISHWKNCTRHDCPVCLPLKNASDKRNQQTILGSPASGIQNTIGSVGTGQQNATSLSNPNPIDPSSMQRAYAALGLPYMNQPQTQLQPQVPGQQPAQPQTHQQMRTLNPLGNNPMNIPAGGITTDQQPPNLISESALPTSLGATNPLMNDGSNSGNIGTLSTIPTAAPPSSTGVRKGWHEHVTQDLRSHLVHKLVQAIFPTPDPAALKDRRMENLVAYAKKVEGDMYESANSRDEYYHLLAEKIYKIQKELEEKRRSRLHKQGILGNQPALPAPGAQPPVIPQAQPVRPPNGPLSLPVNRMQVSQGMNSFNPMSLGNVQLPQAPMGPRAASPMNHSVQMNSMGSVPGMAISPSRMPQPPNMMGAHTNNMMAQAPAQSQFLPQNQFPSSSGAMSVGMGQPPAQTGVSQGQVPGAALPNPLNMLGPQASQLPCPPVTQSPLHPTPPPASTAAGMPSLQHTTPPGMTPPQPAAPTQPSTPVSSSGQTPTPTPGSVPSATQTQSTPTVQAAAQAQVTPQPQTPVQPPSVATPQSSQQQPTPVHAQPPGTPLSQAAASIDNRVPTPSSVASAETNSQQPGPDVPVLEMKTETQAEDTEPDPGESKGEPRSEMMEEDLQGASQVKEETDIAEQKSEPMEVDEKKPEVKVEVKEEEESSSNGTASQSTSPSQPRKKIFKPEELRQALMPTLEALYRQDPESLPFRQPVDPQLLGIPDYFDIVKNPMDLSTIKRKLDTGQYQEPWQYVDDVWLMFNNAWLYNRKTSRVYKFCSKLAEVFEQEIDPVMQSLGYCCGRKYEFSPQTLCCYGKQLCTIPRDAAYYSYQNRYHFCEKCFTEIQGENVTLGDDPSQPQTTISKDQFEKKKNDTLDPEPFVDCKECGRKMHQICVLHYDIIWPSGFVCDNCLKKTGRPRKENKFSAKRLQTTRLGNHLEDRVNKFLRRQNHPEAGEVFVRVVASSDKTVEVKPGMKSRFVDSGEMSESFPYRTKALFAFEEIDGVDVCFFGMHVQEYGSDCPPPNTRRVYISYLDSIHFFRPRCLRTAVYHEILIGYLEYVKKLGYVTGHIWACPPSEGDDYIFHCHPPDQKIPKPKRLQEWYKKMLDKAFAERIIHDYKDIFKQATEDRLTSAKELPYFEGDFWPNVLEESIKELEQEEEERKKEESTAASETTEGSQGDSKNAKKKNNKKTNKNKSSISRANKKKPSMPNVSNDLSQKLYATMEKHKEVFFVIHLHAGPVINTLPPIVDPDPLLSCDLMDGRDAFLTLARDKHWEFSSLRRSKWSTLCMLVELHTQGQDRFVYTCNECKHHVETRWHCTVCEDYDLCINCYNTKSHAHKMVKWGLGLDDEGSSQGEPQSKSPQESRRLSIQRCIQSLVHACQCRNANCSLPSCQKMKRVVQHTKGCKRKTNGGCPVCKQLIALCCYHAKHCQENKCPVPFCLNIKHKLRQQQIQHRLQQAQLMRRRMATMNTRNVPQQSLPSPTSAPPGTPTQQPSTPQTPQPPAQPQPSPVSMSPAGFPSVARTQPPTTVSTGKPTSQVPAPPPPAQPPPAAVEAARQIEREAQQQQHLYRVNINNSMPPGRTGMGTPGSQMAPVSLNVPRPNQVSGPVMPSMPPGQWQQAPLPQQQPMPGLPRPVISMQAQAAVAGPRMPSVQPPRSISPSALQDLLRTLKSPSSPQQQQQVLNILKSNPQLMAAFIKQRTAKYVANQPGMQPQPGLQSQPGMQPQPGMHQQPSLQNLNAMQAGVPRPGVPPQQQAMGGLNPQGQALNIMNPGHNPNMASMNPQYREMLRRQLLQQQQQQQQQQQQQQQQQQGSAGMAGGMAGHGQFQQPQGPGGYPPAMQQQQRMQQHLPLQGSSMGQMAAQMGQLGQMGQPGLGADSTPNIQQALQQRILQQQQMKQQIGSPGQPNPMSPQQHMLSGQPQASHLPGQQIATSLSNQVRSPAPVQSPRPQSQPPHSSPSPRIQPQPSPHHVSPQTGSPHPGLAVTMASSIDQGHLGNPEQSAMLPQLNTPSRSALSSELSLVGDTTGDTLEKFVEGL
# [6] = tested on: collagen 1A2; assay: RT-PCR for collagen 1A2 in bleomycin treated mice; assay type: in vivo; settings: ICG-001 5 mgs/Kg/day s.c.
# [7] = bleomycin 5 days, then ICG-001 5 mgs/Kg/day for 10 days from the sixth day
# [8] = bleomycin 5 days, then ICG-001 5 mgs/Kg/day for 10 days, untreated controls did not
smiles,measurement,setting,value
O=C1[C@H](Cc2ccc(O)cc2)N2C(=O)CCN(C(=O)NCc3ccccc3)[C@H]2CN1Cc1cccc2ccccc12 [ICG-001],airway appearance in lung sections,[1]; [7],essentially normal
same,collagen levels (trichrome stain),[1]; [7],normal collagen levels
same,body weight,[1]; [8],regained normal body weight
same,survival,[1]; [8],survived
same,"disease progression, as judged by reduced mortality, histopathology and endogenous gene expression","[1]; murine bleomycin model of pulmonary fibrosis, 5 mg/Kg/day",not only halts but reverses disease progression
same,S100A4 message (RT-PCR),[2],reduced essentially to negative control
same,E-cadherin expression (Western blot),[3],increased
same,S100A4 expression at the mRNA level,[4],this is also true at the mRNA level
same,S100A4 expression (Western blot),"[4]; RPMI 1640+10% FBS, 2 days",decreased
same,effect on β-catenin/CBP interaction,[5],selectively blocks
same,collagen 1A2 message (RT-PCR),[6],reduced essentially to negative control

# Reference: patent US7915251B2, “Alpha-helix mimetics and methods relating to the treatment of fibrosis” (Institute for Chemical Genomics, priority 2005, dated 2011)
